From US20220402925A1, “COMPOUNDS AND METHODS FOR THE TREATMENT OF CYSTIC FIBROSIS” (Flatley Discovery Lab, LLC, priority 2019, published 2022) come the findings set out here.

Molecules are shown by their SMILES.

For the test, the target named is T1, F508del CFTR (Homo sapiens, UniProt P13569, DEL508-508).
T1 construct: Primary CF airway epithelial cells were obtained from the UNC Cystic Fibrosis Tissue Procurement and Cell Culture Core; host or cells: primary CF airway epithelial cells
T1 sequence (P13569 with tags, fused parts or gaps DEL508-508): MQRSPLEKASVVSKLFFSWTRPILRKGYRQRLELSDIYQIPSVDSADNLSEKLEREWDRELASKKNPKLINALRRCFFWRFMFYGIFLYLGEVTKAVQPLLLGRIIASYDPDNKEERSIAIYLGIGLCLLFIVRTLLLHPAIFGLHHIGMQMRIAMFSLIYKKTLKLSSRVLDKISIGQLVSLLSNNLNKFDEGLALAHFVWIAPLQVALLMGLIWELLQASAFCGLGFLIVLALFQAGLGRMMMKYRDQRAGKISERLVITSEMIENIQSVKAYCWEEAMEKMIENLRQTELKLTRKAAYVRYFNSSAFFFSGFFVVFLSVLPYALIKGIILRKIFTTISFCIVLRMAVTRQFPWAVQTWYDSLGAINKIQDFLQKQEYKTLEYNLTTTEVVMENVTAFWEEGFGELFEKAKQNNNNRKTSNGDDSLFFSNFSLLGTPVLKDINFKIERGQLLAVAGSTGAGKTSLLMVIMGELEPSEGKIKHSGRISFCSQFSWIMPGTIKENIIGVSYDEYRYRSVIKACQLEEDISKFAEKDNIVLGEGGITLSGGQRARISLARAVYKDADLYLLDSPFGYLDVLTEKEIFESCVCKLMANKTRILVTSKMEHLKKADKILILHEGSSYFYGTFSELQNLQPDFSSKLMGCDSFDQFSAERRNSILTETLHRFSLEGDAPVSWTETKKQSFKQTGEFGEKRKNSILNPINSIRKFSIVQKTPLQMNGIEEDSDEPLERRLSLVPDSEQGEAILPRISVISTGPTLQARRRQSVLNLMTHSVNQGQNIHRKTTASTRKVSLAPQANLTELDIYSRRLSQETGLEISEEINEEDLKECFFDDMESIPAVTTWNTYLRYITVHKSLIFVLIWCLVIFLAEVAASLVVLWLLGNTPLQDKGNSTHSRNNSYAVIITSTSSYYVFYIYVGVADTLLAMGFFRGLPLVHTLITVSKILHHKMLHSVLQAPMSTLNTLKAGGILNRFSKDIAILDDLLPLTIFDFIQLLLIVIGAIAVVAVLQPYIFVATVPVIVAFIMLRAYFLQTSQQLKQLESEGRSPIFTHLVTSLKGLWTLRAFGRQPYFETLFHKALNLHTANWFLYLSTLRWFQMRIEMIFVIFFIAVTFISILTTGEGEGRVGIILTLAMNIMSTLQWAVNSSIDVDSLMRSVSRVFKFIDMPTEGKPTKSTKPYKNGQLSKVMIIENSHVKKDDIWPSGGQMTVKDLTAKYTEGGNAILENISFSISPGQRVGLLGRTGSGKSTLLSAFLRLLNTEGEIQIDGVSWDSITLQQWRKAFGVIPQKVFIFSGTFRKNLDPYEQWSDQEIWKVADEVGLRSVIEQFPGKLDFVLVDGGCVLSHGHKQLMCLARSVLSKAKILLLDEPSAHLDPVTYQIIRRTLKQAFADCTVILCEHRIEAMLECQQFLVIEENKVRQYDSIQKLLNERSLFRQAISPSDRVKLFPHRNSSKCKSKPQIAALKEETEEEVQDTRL
Description: Equivalent current assay in primary CF airway epithelial cells (Corrector Activity, NAUC normalized to 3 μM VX809). Format: cell-based. The note with it: NAUC as % of positive control (VX-809). The gist of the method: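 Differentiated primary CF airway cells treated basolaterally 24 h at 37° C with compound (0.1% DMSO). Equivalent current recorded after 5 μM benzamil, stimulation with 10 μM forskolin plus 1 μM VX-770 or 3 μM FDL176, and block by 20 μM CFTR-172; vehicle-subtracted AUC normalized to 3 μM VX809; EC50 from sigmoid fit, Hill slope 1.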
Turning to `CCN(C(=O)Cn1nc(-c2cc(Cl)cc(OC)c2)c2occc2c1=O)c1ccc2c(c1)OC(F)(F)O2` [Example 112], the “Corr Activity (NAUC)” value is “+++ (NAUC>70% of positive control)”.

With `CN(C(=O)Cn1nc(-c2cccc(C#N)c2)c2oc(CN3CCCCC3)cc2c1=O)c1ccc2c(c1)OC(F)(F)O2` [Example 182, 2-(7-(3-cyanophenyl)-4-oxo-2-(piperidin-1-ylmethyl)furo[2,3-d]pyridazin-5(4H)-yl)-N-(2,2-difluorobenzo[d][1,3]dioxol-5-yl)-N-methylacetamide], the “Corr Activity (NAUC)” value is given as “+++ (NAUC>70% of positive control)”.

`CCN(C(=O)Cn1nc(-c2cccc(Cl)c2)c2[nH]cnc2c1=O)c1ccc2c(c1)OC(F)(F)O2` [Example 26]: the “Corr Activity (NAUC)” value is recorded as “+++ (NAUC>70% of positive control)”.

Turning to `CCN(C(=O)Cn1nc(-c2ccc(N3CCCC3)c(C#N)c2)c2[nH]cnc2c1=O)c1ccc2c(c1)OC(F)(F)O2` [Example 352], the “Corr Activity (NAUC)” value was “+++ (NAUC>70% of positive control)”.

In the case of `Cc1c(N(C)C(=O)Cn2nc(-c3cc(F)cc(C#N)c3)c3oc(C(=O)NC(C)(C)C)cc3c2=O)ccc2c1OC(F)(F)O2` [Example 139], the “Corr Activity (NAUC)” value is on record as “+++ (NAUC>70% of positive control)”.

`CCN(C(=O)Cn1nc(-c2cc(C#N)cc(OCCO)c2)c2occc2c1=O)c1ccc2c(c1)OC(F)(F)O2` [Example 214]: the “Corr Activity (NAUC)” value was “++ (NAUC 70-40% of positive control)”.

Take `CCN(C(=O)Cn1nc(-c2cccc(F)c2)c2occc2c1=O)c1ccc2c(c1F)OC(F)(F)O2` [Example 109]: the “Corr Activity (NAUC)” value is reported as “+++ (NAUC>70% of positive control)”.

For the compound `CN(C(=O)Cn1nc(-c2cccc(Cl)c2)c2oc(NC(=O)OC(C)(C)C)cc2c1=O)c1ccc2c(c1)OC(F)(F)O2` [Example 181, tert-butyl (7-(3-chlorophenyl)-5-(2-((2,2-difluorobenzo[d][1,3]dioxol-5-yl)(methyl)amino)-2-oxoethyl)-4-oxo-4,5-dihydrofuro[2,3-d]pyridazin-2-yl)carbamate], the “Corr Activity (NAUC)” value is listed as “+++ (NAUC>70% of positive control)”.

`CCN(C(=O)Cn1nc(-c2cccc(F)c2)c2[nH]ccc2c1=O)c1ccc2c(c1)OC(F)(F)O2` [Example 501, N-(2,2-difluorobenzo[d][1,3]dioxol-5-yl)-N-ethyl-2-(7-(3-fluorophenyl)-4-oxo-1,4-dihydro-5H-pyrrolo[2,3-d]pyridazin-5-yl)acetamide]: the “Corr Activity (NAUC)” value was “+++ (NAUC>70% of positive control)”.

On to `CN(C(=O)Cn1nc(-c2cccc(C#N)c2)c2occc2c1=O)c1ccc2c(c1F)OC(F)(F)O2` [Example 59], for which the “Corr Activity (NAUC)” value is “+++ (NAUC>70% of positive control)”.

Turning to `CCN(C(=O)Cn1nc(-c2cc(F)cc(F)c2)c2[nH]cnc2c1=O)c1ccc2c(c1)OC(F)(F)O2` [Example 258], the “Corr Activity (NAUC)” value is “+++ (NAUC>70% of positive control)”.

In the case of `CCN(C(=O)Cn1nc(-c2cccc(C(C)(C)C)c2)c2occc2c1=O)c1ccc2c(c1)OC(F)(F)O2` [Example 88], the “Corr Activity (NAUC)” value is reported as “++ (NAUC 70-40% of positive control)”.

As for `CCN(C(=O)Cn1nc(-c2cc(F)cc(Cl)c2)c2oc(C3CC3)cc2c1=O)c1ccc2c(c1)OC(F)(F)O2` [Example 223], the “Corr Activity (NAUC)” value is reported as “+++ (NAUC>70% of positive control)”.

As for `CCN(C(=O)Cn1nc(-c2cc(F)cc(C#N)c2)c2oc(C(=O)NC(C)(C)C)cc2c1=O)c1ccc2c(c1C)OC(F)(F)O2` [Example 140], the “Corr Activity (NAUC)” value is “++ (NAUC 70-40% of positive control)”.

Take `CCN(C(=O)Cn1nc(-c2cc(C#N)cc(OC)c2)c2oc(C3CC3)cc2c1=O)c1ccc2c(c1)OC(F)(F)O2` [Example 226]: the “Corr Activity (NAUC)” value was “+++ (NAUC>70% of positive control)”.

As to `CCN(C(=O)Cn1nc(-c2cc(Cl)cc(C#N)c2)c2oc(C(F)F)cc2c1=O)c1cc2c(cc1C)OC(F)(F)O2` [Example 194], the “Corr Activity (NAUC)” value is “+++ (NAUC>70% of positive control)”.

In the case of `COc1cc(OC(F)(F)F)cc(-c2nn(CC(=O)N(c3ccc4c(c3)OC(F)(F)O4)C3CC3)c(=O)c3nc[nH]c23)c1` [Example 397], the “Corr Activity (NAUC)” value is “+ (NAUC<40% of positive control)”.

Turning to `O=C1Cc2ccc(-c3nn(CC(=O)N(c4ccc5c(c4)OC(F)(F)O5)C4CC4)c(=O)c4nc[nH]c34)cc2N1` [Example 426], the “Corr Activity (NAUC)” value is listed as “+ (NAUC<40% of positive control)”.

Regarding `CN(C(=O)Cn1nc(-c2cccc(C#N)c2)c2sccc2c1=O)c1ccc2c(c1)OC(F)(F)O2` [Example 7], the “Corr Activity (NAUC)” value is “+++ (NAUC>70% of positive control)”.

On to `CCN(C(=O)Cn1nc(-c2cccc(F)c2)c2c(c1=O)CCC2)c1ccc2nc(C)oc2c1` [Example 43], for which the “Corr Activity (NAUC)” value is “+++ (NAUC>70% of positive control)”.

Turning to `CN(C(=O)Cn1nc(-c2cccc(C#N)c2)c2oc(C(C)(C)O)cc2c1=O)c1ccc2c(c1)OC(F)(F)O2` [Example 204], the “Corr Activity (NAUC)” value is given as “+++ (NAUC>70% of positive control)”.

In the case of `CCN(C(=O)Cn1nc(-c2cc(F)cc(F)c2)c2oc(C3CCC3)cc2c1=O)c1ccc2c(c1)OC(F)(F)O2` [Example 235], the “Corr Activity (NAUC)” value is reported as “++ (NAUC 70-40% of positive control)”.

As for `CCN(C(=O)Cn1nc(-c2cc(C)cc(Cl)c2)c2[nH]cnc2c1=O)c1ccc2c(c1)OC(F)(F)O2` [Example 269], the “Corr Activity (NAUC)” value is recorded as “+++ (NAUC>70% of positive control)”.

In the case of `CCN(C(=O)Cn1nc(-c2cccc(Cl)c2)c2c(c1=O)CCC2)c1ccc2nc(C)oc2c1` [Example 49], the “Corr Activity (NAUC)” value is listed as “++ (NAUC 70-40% of positive control)”.

Turning to `CCN(C(=O)Cn1nc(-c2cccc(C#N)c2)c2occc2c1=O)c1cc2c(cc1C)OC(F)(F)O2` [Example 45], the “Corr Activity (NAUC)” value is recorded as “+++ (NAUC>70% of positive control)”.

As for `COc1cc(C#N)cc(-c2nn(CC(=O)N(c3ccc4c(c3)OC(F)(F)O4)C3CC3)c(=O)c3nc[nH]c23)c1` [Example 409], the “Corr Activity (NAUC)” value is on record as “++ (NAUC 70-40% of positive control)”.

Take `CCN(C(=O)Cn1nc(-c2cc(F)cc(CC#N)c2)c2[nH]cnc2c1=O)c1ccc2c(c1)OC(F)(F)O2` [Example 252]: the “Corr Activity (NAUC)” value was “++ (NAUC 70-40% of positive control)”.

Take `CCN(C(=O)Cn1nc(-c2cc(Cl)cc(C#N)c2)c2oc(C(F)F)cc2c1=O)c1ccc2c(c1C)OC(F)(F)O2` [Example 196]: the “Corr Activity (NAUC)” value is listed as “++ (NAUC 70-40% of positive control)”.

`CCN(C(=O)Cn1nc(-c2ccc3c(cnn3C(C)C)c2)c2[nH]cnc2c1=O)c1ccc2c(c1)OC(F)(F)O2` [Example 310]: the “Corr Activity (NAUC)” value is given as “+ (NAUC<40% of positive control)”.

Regarding `CCN(C(=O)Cn1nc(-c2cc(OC)cc(OC(F)(F)F)c2)c2[nH]cnc2c1=O)c1ccc2c(c1)OC(F)(F)O2` [Example 274], the “Corr Activity (NAUC)” value is “+ (NAUC<40% of positive control)”.

As for `CCN(C(=O)Cn1nc(-c2cccc(C#N)c2)c2oc(C(=O)NC(C)(C)C)cc2c1=O)c1ccc2c(c1)OC(F)(F)O2` [Example 121], the “Corr Activity (NAUC)” value is “+++ (NAUC>70% of positive control)”.

Regarding `CCN(C(=O)Cn1nc(-c2cc(Cl)cc(Cl)c2)c2[nH]cnc2c1=O)c1ccc2c(c1)OC(F)(F)O2` [Example 254], the “Corr Activity (NAUC)” value is “+++ (NAUC>70% of positive control)”.

`Cc1cc2c(cc1N(C)C(=O)Cn1nc(-c3cc(F)cc(C#N)c3)c3occc3c1=O)OC(F)(F)O2` [Example 166]: the “Corr Activity (NAUC)” value is on record as “+++ (NAUC>70% of positive control)”.
